For the experiment, the target named is human M4 receptor (Homo sapiens (Human), UniProt P08173). Briefly: Radioligand (tritiated N-methylscopolamine) binding assay, M4. Particulars: Ki against the M4 receptor; membranes from CHO cells expressing human M4; tritiated N-methylscopolamine 1.5 nM; read-out: Ki. As to the method: Binding affinity (Ki) of compounds was measured by inhibition of radioligand binding to membranes from CHO cells expressing human M1, M2, M3, M4 and M5 receptors. Membranes were prepared by nitrogen cavitation and differential centrifugation as previously described (Hoare et al., Mol. Pharmacol. 2003 March; 63(3): 751-65). The radioligand employed was tritiated N-methylscopolamine, used at a concentration of 1.5 nM. A dose-response of twelve concentrations of compound was used, ranging from 10 μM to […]. The assay buffer was 50 mM HEPES, 100 mM NaCl, 5 mM MgCl2, 1 mM ethylenediaminetetraacetic acid, pH-adjusted to pH 7.4. Membranes, radioligand and compound were incubated together for 90 minutes at 37° C., in a total volume of 150 μl in a 96-well plate. Receptor-bound radioligand was then collected by harvesting the assay over glass fiber filters pretreated with polyethylenimine to trap the cell membranes, using rapid vacuum filtration. Harvesting and radioactivity counting was conducted as previously described (see, e.g., Hoare et al., Mol. Pharmacol. 2003 63(3):751-65); Erratum at Mol. Pharmacol. 2005 July; 68(1): 260).
human M4 receptor, sequence (P08173 whole entry): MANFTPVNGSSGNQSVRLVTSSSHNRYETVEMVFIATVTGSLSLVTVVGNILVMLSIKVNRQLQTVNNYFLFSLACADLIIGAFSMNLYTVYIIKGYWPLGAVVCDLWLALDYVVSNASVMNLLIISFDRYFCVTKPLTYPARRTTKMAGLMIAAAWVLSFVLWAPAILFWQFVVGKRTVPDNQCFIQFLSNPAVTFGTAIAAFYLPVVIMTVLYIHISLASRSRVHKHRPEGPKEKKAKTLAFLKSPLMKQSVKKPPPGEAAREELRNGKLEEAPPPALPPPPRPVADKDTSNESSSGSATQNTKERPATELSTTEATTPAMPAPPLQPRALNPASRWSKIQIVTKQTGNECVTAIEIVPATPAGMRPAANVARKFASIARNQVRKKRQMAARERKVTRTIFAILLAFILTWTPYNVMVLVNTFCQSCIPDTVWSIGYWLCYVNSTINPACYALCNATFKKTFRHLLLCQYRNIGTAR

pKi: −log10 of the molar value.

Turning to `Nc1nc(N2CCN(C(=O)NCCC3CCN(Cc4ccccc4)CC3)CC2)ncc1Cl` [5-33, 4-(4-amino-5-chloropyrimidin-2-yl)-N-[2-(1-benzylpiperidin-4-yl)ethyl]piperazine-1-carboxamide], the pKi is 7.00 to 8.00.
The value for `Nc1nc(N2CCN(C(=O)NCCC3CCN(Cc4ccccc4)CC3)CC2)ncc1F` [5-34, 4-(4-amino-5-fluoropyrimidin-2-yl)-N-[2-(1-benzylpiperidin-4-yl)ethyl]piperazine-1-carboxamide] was 6.00 to 7.00; that for `C[C@@H]1CN(c2cc(F)c(F)c(F)c2)CCN1C(=O)NCCC1CCN(Cc2ccc(C#N)cc2)CC1` [6-2, (2R)-N-(2-{1-[(4-cyanophenyl)methyl]piperidin-4-yl}ethyl)-2-methyl-4-(3,4,5-trifluorophenyl)piperazine-1-carboxamide] was 6.00 to 7.00; that for `C[C@@H]1CN(c2cc(F)c(F)c(F)c2)CCN1C(=O)NCCC1CCN(Cc2ccccc2F)CC1` [6-5, (2R)-N-(2-{1-[(2-fluorophenyl)methyl]piperidin-4-yl}ethyl)-2-methyl-4-(3,4,5-trifluorophenyl)piperazine-1-carboxamide] was 7.00 to 8.00.
Take `C[C@@H]1CN(c2cc(F)c(F)c(F)c2)CCN1C(=O)NCCC1CCN(CC2CCCCC2)CC1` [6-6, (2R)-N-{2-[1-(cyclohexylmethyl)piperidin-4-yl]ethyl}-2-methyl-4-(3,4,5-trifluorophenyl)piperazine-1-carboxamide]: the pKi is 7.00 to 8.00.
The value for `C[C@@H]1CN(c2cc(F)c(F)c(F)c2)CCN1C(=O)NCCC1CCN(Cc2ccccn2)CC1` [6-7, (2R)-2-methyl-N-{2-[1-(pyridin-2-ylmethyl)piperidin-4-yl]ethyl}-4-(3,4,5-trifluorophenyl)piperazine-1-carboxamide] was 7.00 to 8.00.
In the case of `C[C@@H]1CN(c2cc(F)c(F)c(F)c2)CCN1C(=O)NCCC1CCN(Cc2csnn2)CC1` [6-8, (2R)-2-methyl-N-{2-[1-(1,2,3-thiadiazol-4-ylmethyl)piperidin-4-yl]ethyl}-4-(3,4,5-trifluorophenyl)piperazine-1-carboxamide], the pKi is 7.00 to 8.00.
On to `C[C@@H]1CN(c2cc(F)c(F)c(F)c2)CCN1C(=O)NCCC1CCN(Cc2ccc3c(c2)OCCO3)CC1` [6-9, (2R)-N-{2-[1-(2,3-dihydro-1,4-benzodioxin-6-ylmethyl)piperidin-4-yl]ethyl}-2-methyl-4-(3,4,5-trifluorophenyl)piperazine-1-carboxamide], for which the pKi was 7.00 to 8.00.
As to `C[C@@H]1CN(c2cc(F)c(F)c(F)c2)CCN1C(=O)NCCC1CCN(Cc2cccc(F)c2)CC1` [6-10, (2R)-N-(2-{1-[(3-fluorophenyl)methyl]piperidin-4-yl}ethyl)-2-methyl-4-(3,4,5-trifluorophenyl)piperazine-1-carboxamide], the pKi was 7.00 to 8.00.
The value for `N#Cc1ccc(N2CCC(C(=O)NCCC3CCN(Cc4ccc5[nH]ccc5c4)CC3)CC2)nc1` [6-11, 1-(5-cyanopyridin-2-yl)-N-{2-[1-(1H-indol-5-ylmethyl)piperidin-4-yl]ethyl}piperidine-4-carboxamide] was 7.00 to 8.00; that for `Cc1nc(CN2CCC(CCNC(=O)N3CCN(c4cc(F)c(F)c(F)c4)C[C@H]3C)CC2)cs1` [6-12, (2R)-2-methyl-N-(2-{1-[(2-methyl-1,3-thiazol-4-yl)methyl]piperidin-4-yl}ethyl)-4-(3,4,5-trifluorophenyl)piperazine-1-carboxamide] was 7.00 to 8.00.
The value for `C[C@@H]1CN(c2cc(F)c(F)c(F)c2)CCN1C(=O)NCCC1CCN(Cc2ccccc2OC(F)F)CC1` [6-13, (2R)-N-[2-(1-{[2-(difluoromethoxy)phenyl]methyl}piperidin-4-yl)ethyl]-2-methyl-4-(3,4,5-trifluorophenyl)piperazine-1-carboxamide] was 7.00 to 8.00.
The value for `CC(c1ccccc1)N1CCC(CCNC(=O)N2CCN(c3cc(F)c(F)c(F)c3)C[C@H]2C)CC1` (stereo partly drawn) [6-14, (2R)-2-methyl-N-{2-[1-(1-phenylethyl)piperidin-4-yl]ethyl}-4-(3,4,5-trifluorophenyl)piperazine-1-carboxamide] was 7.00 to 8.00; that for `O=C(NCCC1CCN(Cc2ccc(F)cc2)CC1)c1ccc(OCc2ccccc2)cc1` [6-15, 4-(benzyloxy)-N-(2-{1-[(4-fluorophenyl)methyl]piperidin-4-yl}ethyl)benzamide] was 7.00 to 8.00; that for `C[C@@H]1CN(c2cc(F)c(F)c(F)c2)CCN1C(=O)NCCC1CCN(Cc2ccc(C(N)=O)cc2)CC1` [6-16, (2R)-N-(2-{1-[(4-carbamoylphenyl)methyl]piperidin-4-yl}ethyl)-2-methyl-4-(3,4,5-trifluorophenyl)piperazine-1-carboxamide] was 7.00 to 8.00.
As for `C[C@@H]1CN(c2cc(F)c(F)c(F)c2)CCN1C(=O)NCCC1CCN(Cc2cccc(F)c2F)CC1` [6-17, (2R)-N-(2-{1-[(2,3-difluorophenyl)methyl]piperidin-4-yl}ethyl)-2-methyl-4-(3,4,5-trifluorophenyl)piperazine-1-carboxamide], the pKi was 7.00 to 8.00.
Consider `C[C@@H]1CN(c2cc(F)c(F)c(F)c2)CCN1C(=O)NCCC1CCN(Cc2cccc(C#N)c2)CC1` [6-18, (2R)-N-(2-{1-[(3-cyanophenyl)methyl]piperidin-4-yl}ethyl)-2-methyl-4-(3,4,5-trifluorophenyl)piperazine-1-carboxamide], for which the pKi is 7.00 to 8.00.
The value for `Cc1nnc(C(c2ccccc2)N2CCC(CCNC(=O)N3CCN(c4cc(F)c(F)c(F)c4)C[C@H]3C)CC2)o1` (stereo partly drawn) [6-19, (2R)-2-methyl-N-(2-{1-[(5-methyl-1,3,4-oxadiazol-2-yl)(phenyl)methyl]piperidin-4-yl}ethyl)-4-(3,4,5-trifluorophenyl)piperazine-1-carboxamide] was 6.00 to 7.00.
The value for `C[C@@H]1CN(c2cc(F)c(F)c(F)c2)CCN1C(=O)NCCC1CCN(Cc2cccc(OC(F)(F)F)c2)CC1` [6-20, (2R)-2-methyl-N-[2-(1-{[3-(trifluoromethoxy)phenyl]methyl}piperidin-4-yl)ethyl]-4-(3,4,5-trifluorophenyl)piperazine-1-carboxamide] was 6.00 to 7.00; that for `C[C@@H]1CN(c2cc(F)c(F)c(F)c2)CCN1C(=O)NCCC1CCN(Cc2ccccc2OC(F)(F)F)CC1` [6-21, (2R)-2-methyl-N-[2-(1-{[2-(trifluoromethoxy)phenyl]methyl}piperidin-4-yl)ethyl]-4-(3,4,5-trifluorophenyl)piperazine-1-carboxamide] was 6.00 to 7.00.
The value for `C[C@@H]1CN(c2cc(F)c(F)c(F)c2)CCN1C(=O)NCCC1CCN(Cc2ccc(F)c(F)c2F)CC1` [6-22, (2R)-2-methyl-4-(3,4,5-trifluorophenyl)-N-(2-{1-[(2,3,4-trifluorophenyl)methyl]piperidin-4-yl}ethyl)piperazine-1-carboxamide] was 6.00 to 7.00; that for `C[C@@H]1CN(c2cc(F)c(F)c(F)c2)CCN1C(=O)NCCC1CCN(Cc2cc(F)cc(F)c2)CC1` [6-23, (2R)-N-(2-{1-[(3,5-difluorophenyl)methyl]piperidin-4-yl}ethyl)-2-methyl-4-(3,4,5-trifluorophenyl)piperazine-1-carboxamide] was 6.00 to 7.00; that for `C[C@@H]1CN(c2cc(F)c(F)c(F)c2)CCN1C(=O)NCCC1CCN(Cc2ccc(OC(F)(F)F)cc2)CC1` [6-24, (2R)-2-methyl-N-[2-(1-{[4-(trifluoromethoxy)phenyl]methyl}piperidin-4-yl)ethyl]-4-(3,4,5-trifluorophenyl)piperazine-1-carboxamide] was 6.00 to 7.00.

By pKi is commonly meant −log10 of the Ki, conventionally taken in molar units.

Source of the values: patent US11033539B2, “Compounds of formulas (VII), (VIII), (IX), (XI), (XII), (XIII), and (XIV) as muscarinic receptor 4(M4) antagonists for treating neurological diseases” (Neurocrine Biosciences, Inc., priority 2015, dated 2021).
